Data taken from PMC3914206.

Tests used:
Type in all cases: binding
panel of 442 kinases [1] = molecular target: T1, panel of 442 kinases (Homo sapiens, UniProt P29320); settings: Compound Concentration 10 µM
T1 construct: purchased KINOMEscan
T1 sequence (P29320 21-983): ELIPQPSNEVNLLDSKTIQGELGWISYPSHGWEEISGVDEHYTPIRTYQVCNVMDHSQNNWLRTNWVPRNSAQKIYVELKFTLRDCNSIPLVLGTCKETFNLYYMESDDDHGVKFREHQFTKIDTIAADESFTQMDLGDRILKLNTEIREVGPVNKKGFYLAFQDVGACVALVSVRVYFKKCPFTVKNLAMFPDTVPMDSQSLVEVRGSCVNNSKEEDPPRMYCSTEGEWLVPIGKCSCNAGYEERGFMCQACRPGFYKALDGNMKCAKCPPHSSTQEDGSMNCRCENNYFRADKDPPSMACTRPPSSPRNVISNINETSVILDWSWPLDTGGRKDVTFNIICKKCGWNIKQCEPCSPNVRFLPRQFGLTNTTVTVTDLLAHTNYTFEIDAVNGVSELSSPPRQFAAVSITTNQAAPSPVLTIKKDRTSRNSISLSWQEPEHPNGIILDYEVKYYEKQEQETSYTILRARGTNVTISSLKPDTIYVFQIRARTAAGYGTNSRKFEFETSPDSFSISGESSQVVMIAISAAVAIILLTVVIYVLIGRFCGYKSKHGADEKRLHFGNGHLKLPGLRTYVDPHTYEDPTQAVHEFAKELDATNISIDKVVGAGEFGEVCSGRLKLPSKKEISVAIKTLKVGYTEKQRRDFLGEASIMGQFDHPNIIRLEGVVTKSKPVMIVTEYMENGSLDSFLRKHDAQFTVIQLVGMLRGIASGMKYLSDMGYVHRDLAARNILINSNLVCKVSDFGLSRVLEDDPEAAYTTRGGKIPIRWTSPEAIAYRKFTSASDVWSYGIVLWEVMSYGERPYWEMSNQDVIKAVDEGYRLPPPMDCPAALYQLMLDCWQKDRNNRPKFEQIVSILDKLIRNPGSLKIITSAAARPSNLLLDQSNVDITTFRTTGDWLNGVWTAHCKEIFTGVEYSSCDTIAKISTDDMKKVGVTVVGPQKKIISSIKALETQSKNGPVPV
Source text: (§1) We assessed the selectivity of members of this scaffold using the KINOMEscan methodology across a near comprehensive panel of 442 kinases [[18,27]].

panel of 442 kinases [2] = molecular target: T2, panel of 442 kinases (Homo sapiens, UniProt P43405); settings: kinase SYK; compound concentration 10 µM
T2 construct: purchased KINOMEscan
Source text: as §1

panel of 442 kinases [3] = molecular target: T3, panel of 442 kinases (Homo sapiens, UniProt P00533, DEL746-750); settings: Compound Concentration 10 µM
T3 construct: purchased KINOMEscan
T3 sequence (P00533 with tags, fused parts or gaps DEL746-750): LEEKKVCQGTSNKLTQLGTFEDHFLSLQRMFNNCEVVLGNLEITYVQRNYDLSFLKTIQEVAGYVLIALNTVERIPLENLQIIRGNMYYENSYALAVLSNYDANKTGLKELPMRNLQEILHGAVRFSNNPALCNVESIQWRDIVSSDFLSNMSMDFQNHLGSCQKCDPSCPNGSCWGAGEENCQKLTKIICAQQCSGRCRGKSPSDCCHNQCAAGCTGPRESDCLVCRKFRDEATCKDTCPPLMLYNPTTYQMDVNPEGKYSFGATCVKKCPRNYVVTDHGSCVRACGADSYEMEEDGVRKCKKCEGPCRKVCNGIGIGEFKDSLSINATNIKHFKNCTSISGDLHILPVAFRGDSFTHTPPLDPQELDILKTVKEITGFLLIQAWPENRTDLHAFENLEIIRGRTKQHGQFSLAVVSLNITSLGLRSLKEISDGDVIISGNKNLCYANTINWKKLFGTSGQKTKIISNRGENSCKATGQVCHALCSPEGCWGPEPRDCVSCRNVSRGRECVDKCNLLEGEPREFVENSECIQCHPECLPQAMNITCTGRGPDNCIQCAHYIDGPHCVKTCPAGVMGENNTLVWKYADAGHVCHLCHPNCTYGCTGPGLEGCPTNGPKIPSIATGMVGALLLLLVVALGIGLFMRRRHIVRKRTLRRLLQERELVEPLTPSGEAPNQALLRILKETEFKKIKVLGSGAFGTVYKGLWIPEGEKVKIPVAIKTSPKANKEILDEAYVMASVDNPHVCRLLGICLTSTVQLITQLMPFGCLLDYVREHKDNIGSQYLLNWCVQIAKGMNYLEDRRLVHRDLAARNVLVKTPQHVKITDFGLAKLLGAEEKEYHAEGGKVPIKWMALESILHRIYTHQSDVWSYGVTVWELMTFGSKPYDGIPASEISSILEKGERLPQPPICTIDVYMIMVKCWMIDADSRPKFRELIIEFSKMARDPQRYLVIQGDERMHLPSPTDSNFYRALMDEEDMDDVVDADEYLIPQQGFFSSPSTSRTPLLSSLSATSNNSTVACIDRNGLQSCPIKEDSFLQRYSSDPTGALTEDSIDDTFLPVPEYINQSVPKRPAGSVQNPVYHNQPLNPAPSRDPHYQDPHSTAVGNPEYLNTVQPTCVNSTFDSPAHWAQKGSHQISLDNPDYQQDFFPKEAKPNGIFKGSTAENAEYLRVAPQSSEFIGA
Source text: as §1

Compound	KINOMEscan: EPHA3 (panel of 442 kinases [1])	% Ctrl, SYK (panel of 442 kinases [2]) [% Ctrl]	KINOMEscan: EGFR(E746-A750del) (panel of 442 kinases [3])
COc1cc(C(=O)N2CCC(N3CCN(C)CC3)CC2)ccc1Nc1ncc2c(n1)N1CCc3cccc(c31)C(=O)N2C [Compound 24]	91	88	
CCOc1cc(C(=O)N2CCC(N3CCN(C)CC3)CC2)ccc1Nc1ncc2c(n1)N(C1CCCC1)c1ccccc1C(=O)N2C [Compound 26]	95	100	100
COc1cc(C(=O)N2CCC(N3CCN(C)CC3)CC2)ccc1Nc1ncc2c(n1)N(C1CCCC1)c1ccccc1C(=O)N2C [Compound 25, 11-cyclopentyl-2-((2-methoxy-4-(4-(4-methylpiperazin-1-yl)piperidine-1-carbonyl)phenyl)amino)-5-methyl-5H-benzo[e]pyrimido[5,4-b][1,4]diazepin-6(11H)-one]	100	100	80
COc1cc(C(=O)N2CCC(N3CCN(C)CC3)CC2)ccc1Nc1ncc2c(n1)N(C)c1ccccc1C(=O)N2C [15 (LRRK2-IN-1)]	100	100	72
